Consider 10 molecules from US7488733B2, “6-arylamino-5-cyano-4-pyrimidinones as pde9a inhibitors” (Boehringer Ingelheim International GmbH, priority 2003, dated 2009).

Each structure is given as a SMILES string. Some results are limits rather than exact numbers.

For assay [1], the target named is T1, PDE9A (Homo sapiens, UniProt O76083). Conditions: concentrations of up to 100 μM; cited from earlier work.
Assay [2] has as its target T1, PDE9A. Nature of the assay: PDE9A inhibition (scintillation proximity assay). The format is biochemical. Details: made in house; host or cells: Sf9 insect cells, pFASTBAC baculovirus. The settings on record: recombinant PDE9A, Table 2; read-out: PDE9A-inhibiting effect IC50. Here is the method:
The test substances are dissolved in 100% DMSO and serially diluted to determine their in vitro effect on PDE 9A. […] 2 μL portions of the diluted substance solutions are introduced into the wells of microtiter plates (Isoplate; Wallac Inc., Atlanta, Ga.). Then 50 μL of a dilution of the PDE9A preparation described above are added. The dilution of the PDE9A preparation is chosen so that less than 70% of the substrate is converted during the subsequent incubation (typical dilution: 1:10 000; dilution buffer: 50 mM Tris/HCl pH 7.5, 8.3 mM MgCl2, 1.7 mM EDTA, 0.2% BSA). The substrate, [8-^3H] guanosine 3′,5′-cyclic phosphate (1 μCi/μL; Amersham Pharmacia Biotech., Piscataway, N.J.) is diluted 1:2000 with assay buffer (50 mM Tris/HCl pH 7.5, 8.3 mM MgCl2, 1.7 mM EDTA) to a concentration of 0.0005 μCi/μL. The enzyme reaction is finally started by adding 50 μL (0.025 μCi) of the diluted substrate. […] Immediately thereafter, 25 μL of a suspension containing 18 mg/mL Yttrium Scintillation Proximity Beads (Amersham Pharmacia Biotech., Piscataway, N.J.) are added. The microtiter plates are sealed with a film and left to stand at room temperature for 60 min. The plates are then measured for 30 s per well in a Microbeta scintillation counter (Wallac Inc., Atlanta, Ga.). IC50 values are determined from the graphical plot of the substance concentration versus the percentage inhibition.
(In a scintillation proximity assay essentially only radioactivity close to the scintillant gives light.)

For assay [3], the target named is T2, Murine PDE9A (Mus musculus, UniProt O70628).
T2 sequence (O70628 1-534): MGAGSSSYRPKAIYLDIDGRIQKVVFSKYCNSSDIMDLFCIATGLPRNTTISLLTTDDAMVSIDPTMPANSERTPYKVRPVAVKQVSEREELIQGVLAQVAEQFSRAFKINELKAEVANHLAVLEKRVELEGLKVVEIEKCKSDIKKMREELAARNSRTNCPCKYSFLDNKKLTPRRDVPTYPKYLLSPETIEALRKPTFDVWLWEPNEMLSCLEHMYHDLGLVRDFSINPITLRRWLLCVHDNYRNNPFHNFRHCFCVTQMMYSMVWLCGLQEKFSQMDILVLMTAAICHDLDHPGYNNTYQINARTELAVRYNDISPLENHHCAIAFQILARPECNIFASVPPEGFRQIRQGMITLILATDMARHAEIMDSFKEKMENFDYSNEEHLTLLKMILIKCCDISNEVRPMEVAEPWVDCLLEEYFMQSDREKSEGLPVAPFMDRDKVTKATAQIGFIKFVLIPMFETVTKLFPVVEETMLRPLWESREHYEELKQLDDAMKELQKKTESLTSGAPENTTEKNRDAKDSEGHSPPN
The settings on record: concentrations below 200 μM; cited from earlier work.

Assay [4] deals with T3, PDE1C (Homo sapiens, UniProt Q14123).
T3 construct: made in house; host or cells: Sf9 insect cells, pFASTBAC baculovirus
The assay can be described thus: PDE1C inhibition. The class given is biochemical. Conditions: human isoenzyme. The text has this: (§1) Recombinant PDE1C (GenBank/EMBL Accession Number: NM_005020, Loughney et al. J. Biol. Chem. 1996 271, 796-806), PDE2A (GenBank/EMBL Accession Number: NM_002599, Rosman et al. Gene 1997 191, 89-95), PDE3B (GenBank/EMBL Accession Number: NM_000922, Miki et al. Genomics 1996, 36, 476-485), PDE4B (GenBank/EMBL Accession Number: NM_002600, Obernolte et al. Gene. 1993, 129, 239-247), PDE5A (GenBank/EMBL Accession Number: NM_001083, Loughney et al. Gene 1998, 216, 139-147), PDE7B (GenBank/EMBL Accession Number: NM_018945, Hetman et al. Proc. Natl. Acad. Sci. U.S.A. 2000, 97, 472-476), PDE8A (GenBank/EMBL Accession Number: AF—056490, Fisher et al. Biochem. Biophys. Res. Commun. […]
(§2) The test substances are dissolved in 100% DMSO and serially diluted to determine their in vitro effect on PDE 9A. […] The plates are then measured for 30 s per well in a Microbeta scintillation counter (Wallac Inc., Atlanta, Ga.). IC50 values are determined from the graphical plot of the substance concentration versus the percentage inhibition.
(§3) The in vitro effect of test substances on recombinant PDE3B, PDE4B, PDE7B, PDE8A, PDE10A and PDE11A is determined in accordance with the assay protocol described above for PDE 9A with the following adaptations: [5′,8-^3H] adenosine 3′,5′-cyclic phosphate (1 μCi/μL; Amersham Pharmacia Biotech., Piscataway, N.J.) is used as substrate. […]

Assay [5] concerns the target T4, PDE2A (Homo sapiens, UniProt O00408).
T4 construct: made in house; host or cells: Sf9 insect cells, pFASTBAC baculovirus
The assay can be described thus: PDE2A inhibition. The format is biochemical. The settings on record: human isoenzyme.
Text: as §1, §2, §3

Assay [6] has as its target T5, PDE3B (Homo sapiens, UniProt Q13370).
T5 construct: made in house; host or cells: Sf9 insect cells, pFASTBAC baculovirus
Nature of the assay: PDE3B inhibition. Conditions: human isoenzyme. The class given is biochemical.
Text: as §1, §2, §3

Assay [7] deals with PDE4B (Homo sapiens, UniProt Q07343). Nature of the assay: PDE4B inhibition. The settings on record: human isoenzyme. The class given is biochemical.
Text: as §1, §2, §3

The target of assay [8] is T6, PDE5A (Homo sapiens, UniProt O76074).
T6 construct: made in house; host or cells: Sf9 insect cells, pFASTBAC baculovirus
Nature of the assay: PDE5A inhibition. The class given is biochemical. The settings on record: human isoenzyme.
Text: as §1, §2, §3

The target of assay [9] is T7, PDE7A (Homo sapiens, UniProt Q9NP56).
T7 construct: made in house; host or cells: Sf9 insect cells, pFASTBAC baculovirus
The assay can be described thus: PDE7A inhibition. The class given is biochemical. The settings on record: human isoenzyme.

Assay [10] addresses T8, PDE8A (Homo sapiens, UniProt O60658).
T8 construct: made in house; host or cells: Sf9 insect cells, pFASTBAC baculovirus
The assay can be described thus: PDE8A inhibition. The class given is biochemical. The settings on record: human isoenzyme.
Text: as §1, §2, §3

Assay [11] addresses T9, PDE10A (Homo sapiens, UniProt Q9Y233).
T9 construct: made in house; host or cells: Sf9 insect cells, pFASTBAC baculovirus
Nature of the assay: PDE10A inhibition. The format is biochemical. Conditions: human isoenzyme.
Text: as §1, §2, §3

One may read the IC50 as the concentration that inhibits the measured activity by half.

T1 sequence (O76083 whole entry): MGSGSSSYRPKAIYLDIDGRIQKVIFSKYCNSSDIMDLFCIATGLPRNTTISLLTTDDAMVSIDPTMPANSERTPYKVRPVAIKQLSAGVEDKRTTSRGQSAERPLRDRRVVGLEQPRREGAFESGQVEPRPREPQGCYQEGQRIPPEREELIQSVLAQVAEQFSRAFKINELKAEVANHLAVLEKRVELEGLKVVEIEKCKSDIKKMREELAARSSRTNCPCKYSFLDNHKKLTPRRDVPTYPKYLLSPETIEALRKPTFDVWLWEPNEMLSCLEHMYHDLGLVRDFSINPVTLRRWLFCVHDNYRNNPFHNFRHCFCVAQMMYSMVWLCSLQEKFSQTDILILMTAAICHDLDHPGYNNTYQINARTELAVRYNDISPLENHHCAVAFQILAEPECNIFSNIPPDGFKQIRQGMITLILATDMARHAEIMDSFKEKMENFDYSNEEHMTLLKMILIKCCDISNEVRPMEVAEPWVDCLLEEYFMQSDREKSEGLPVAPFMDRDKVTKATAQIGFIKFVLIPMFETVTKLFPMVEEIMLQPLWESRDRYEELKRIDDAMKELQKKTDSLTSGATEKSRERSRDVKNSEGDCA
T8 sequence (O60658 117-829 limits assumed): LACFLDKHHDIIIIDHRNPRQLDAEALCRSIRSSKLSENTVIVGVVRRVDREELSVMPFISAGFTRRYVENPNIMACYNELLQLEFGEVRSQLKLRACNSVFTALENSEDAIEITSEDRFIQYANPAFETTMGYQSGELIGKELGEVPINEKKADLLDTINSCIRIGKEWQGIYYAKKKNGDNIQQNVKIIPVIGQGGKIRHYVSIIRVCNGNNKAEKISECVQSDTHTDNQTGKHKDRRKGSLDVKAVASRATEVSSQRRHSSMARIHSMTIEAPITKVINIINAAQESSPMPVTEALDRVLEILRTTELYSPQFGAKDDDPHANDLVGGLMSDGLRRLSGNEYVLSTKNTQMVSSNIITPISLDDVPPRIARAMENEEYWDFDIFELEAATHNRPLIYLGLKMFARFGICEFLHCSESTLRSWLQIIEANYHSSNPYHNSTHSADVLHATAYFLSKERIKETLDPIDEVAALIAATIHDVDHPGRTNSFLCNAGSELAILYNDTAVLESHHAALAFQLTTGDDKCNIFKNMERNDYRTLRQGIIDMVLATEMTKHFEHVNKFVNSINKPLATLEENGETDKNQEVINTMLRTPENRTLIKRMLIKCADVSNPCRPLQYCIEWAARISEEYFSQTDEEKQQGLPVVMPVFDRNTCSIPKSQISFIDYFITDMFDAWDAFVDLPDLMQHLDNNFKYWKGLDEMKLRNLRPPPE
T7 sequence (Q9NP56 whole entry): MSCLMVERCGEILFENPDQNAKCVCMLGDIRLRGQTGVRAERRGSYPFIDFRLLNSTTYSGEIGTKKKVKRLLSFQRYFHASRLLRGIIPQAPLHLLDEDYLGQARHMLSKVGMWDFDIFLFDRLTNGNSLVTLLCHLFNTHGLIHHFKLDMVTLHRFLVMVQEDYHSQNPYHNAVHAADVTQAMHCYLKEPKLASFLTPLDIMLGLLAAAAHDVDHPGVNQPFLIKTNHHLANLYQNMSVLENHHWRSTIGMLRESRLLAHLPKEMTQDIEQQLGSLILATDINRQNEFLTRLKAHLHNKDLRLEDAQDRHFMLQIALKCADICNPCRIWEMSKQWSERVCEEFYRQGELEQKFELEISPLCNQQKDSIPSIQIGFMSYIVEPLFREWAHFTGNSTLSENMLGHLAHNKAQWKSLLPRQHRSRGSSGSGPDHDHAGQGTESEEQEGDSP
Sequence of PDE4B (Q07343 212-736 limits assumed): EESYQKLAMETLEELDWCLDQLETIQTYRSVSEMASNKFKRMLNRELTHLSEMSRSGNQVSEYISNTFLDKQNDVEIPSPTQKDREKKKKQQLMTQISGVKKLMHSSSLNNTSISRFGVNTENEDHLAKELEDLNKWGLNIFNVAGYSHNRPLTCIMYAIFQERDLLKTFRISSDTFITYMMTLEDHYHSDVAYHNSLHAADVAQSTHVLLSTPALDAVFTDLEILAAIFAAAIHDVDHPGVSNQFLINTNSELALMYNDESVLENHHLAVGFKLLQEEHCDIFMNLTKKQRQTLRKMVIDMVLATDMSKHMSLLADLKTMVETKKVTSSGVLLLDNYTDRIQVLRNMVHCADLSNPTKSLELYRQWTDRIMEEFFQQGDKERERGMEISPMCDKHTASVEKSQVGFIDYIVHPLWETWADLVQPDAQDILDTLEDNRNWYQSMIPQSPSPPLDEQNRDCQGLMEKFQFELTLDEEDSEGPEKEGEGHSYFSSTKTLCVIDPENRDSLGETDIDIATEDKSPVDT
T5 sequence (Q13370 whole entry): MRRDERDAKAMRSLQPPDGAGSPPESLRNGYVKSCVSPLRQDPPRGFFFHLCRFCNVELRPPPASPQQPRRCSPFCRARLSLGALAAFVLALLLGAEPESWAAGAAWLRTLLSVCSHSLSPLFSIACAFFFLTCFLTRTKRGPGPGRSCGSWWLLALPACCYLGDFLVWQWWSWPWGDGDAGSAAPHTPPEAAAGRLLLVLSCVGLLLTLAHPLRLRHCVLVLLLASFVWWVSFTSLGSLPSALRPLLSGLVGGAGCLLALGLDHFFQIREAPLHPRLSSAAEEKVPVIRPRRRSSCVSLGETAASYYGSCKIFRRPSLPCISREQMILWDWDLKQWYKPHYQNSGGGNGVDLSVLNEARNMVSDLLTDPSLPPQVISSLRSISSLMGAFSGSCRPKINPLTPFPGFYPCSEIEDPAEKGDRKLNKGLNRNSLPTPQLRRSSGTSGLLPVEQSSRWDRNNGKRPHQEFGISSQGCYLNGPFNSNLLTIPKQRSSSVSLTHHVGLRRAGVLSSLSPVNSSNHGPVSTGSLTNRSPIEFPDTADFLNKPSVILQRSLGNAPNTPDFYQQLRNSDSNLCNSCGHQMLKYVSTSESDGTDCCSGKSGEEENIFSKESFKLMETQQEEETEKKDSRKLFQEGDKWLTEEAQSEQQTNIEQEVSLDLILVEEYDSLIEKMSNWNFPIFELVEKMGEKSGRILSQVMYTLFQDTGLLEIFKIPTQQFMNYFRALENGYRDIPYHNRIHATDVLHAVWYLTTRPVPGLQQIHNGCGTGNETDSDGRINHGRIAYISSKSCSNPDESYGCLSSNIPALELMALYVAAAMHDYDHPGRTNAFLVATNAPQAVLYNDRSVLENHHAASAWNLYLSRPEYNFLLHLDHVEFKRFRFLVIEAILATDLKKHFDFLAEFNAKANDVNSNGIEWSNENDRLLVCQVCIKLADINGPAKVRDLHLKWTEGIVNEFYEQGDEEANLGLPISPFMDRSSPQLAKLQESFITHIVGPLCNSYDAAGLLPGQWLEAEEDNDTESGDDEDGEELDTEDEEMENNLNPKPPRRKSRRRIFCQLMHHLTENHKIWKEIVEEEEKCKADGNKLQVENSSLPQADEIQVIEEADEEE
T4 sequence (O00408 whole entry): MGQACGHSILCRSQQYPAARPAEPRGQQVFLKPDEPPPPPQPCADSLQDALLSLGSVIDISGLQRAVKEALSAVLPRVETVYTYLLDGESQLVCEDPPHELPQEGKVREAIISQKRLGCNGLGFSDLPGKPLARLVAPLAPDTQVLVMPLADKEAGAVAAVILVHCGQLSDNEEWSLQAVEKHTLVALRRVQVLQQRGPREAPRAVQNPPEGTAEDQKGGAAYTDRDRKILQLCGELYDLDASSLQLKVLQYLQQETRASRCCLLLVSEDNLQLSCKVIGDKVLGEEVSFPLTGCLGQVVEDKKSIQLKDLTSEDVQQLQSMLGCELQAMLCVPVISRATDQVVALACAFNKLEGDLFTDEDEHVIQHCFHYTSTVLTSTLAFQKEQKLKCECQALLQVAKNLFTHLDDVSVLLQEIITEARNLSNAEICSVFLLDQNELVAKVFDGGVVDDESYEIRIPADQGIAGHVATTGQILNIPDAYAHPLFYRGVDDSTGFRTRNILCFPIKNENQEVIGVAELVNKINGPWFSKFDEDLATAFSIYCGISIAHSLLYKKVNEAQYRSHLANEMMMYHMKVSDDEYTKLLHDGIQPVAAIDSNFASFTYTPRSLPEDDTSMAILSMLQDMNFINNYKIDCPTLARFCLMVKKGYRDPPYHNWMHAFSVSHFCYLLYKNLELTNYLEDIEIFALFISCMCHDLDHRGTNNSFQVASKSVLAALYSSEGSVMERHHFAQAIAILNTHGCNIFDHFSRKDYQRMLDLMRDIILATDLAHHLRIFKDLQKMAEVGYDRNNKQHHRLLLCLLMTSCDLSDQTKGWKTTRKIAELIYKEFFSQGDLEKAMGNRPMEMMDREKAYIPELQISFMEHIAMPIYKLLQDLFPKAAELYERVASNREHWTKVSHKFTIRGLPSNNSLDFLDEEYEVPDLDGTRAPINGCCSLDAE

As to `COc1ccc(C2CNC(=O)C2)cc1OC1CCCC1` (stereo not drawn) [rolipram], the “inhibition of isolated human PDE9A” value in assay [1] was “no inhibition”.

With `Cc1ccc(F)cc1Nc1nc(CC2CCCC2)[nH]c(=O)c1C#N` [Example 23], the IC50 in [2] was 87 nM. On the same count and under the same terms, the same measure for `N#Cc1c(Nc2ccc(F)cc2)nc(CC2CCCC2)[nH]c1=O` [Example 1, 2-(Cyclopentylmethyl)-4-[(fluorophenyl)amino]6-oxo-1,6-dihydro-5-pyrimidinecarbonitrile]: 75 nM.

Take `CC(C)Cn1c(=O)n(C)c(=O)c2[nH]cnc21` [IBMX]: in assay [1], the “inhibition of isolated human PDE9A” value is “no inhibition”. Further, in assay [3], the “inhibition of murine PDE9A” value is “not inhibited”. In the case of `CCC(C)Cc1nc(Nc2ccccc2C)c(C#N)c(=O)[nH]1` (stereo not drawn) [Example 14, 2-(2-Methylbutyl)-4-[(2-methylphenyl)amino]-6-oxo-1,6-dihydro-5-pyrimidinecarbonitrile], the IC50 in assay [2] was 75 nM.

For the molecule `CC(=O)Nc1ccc(-c2c[nH]c(=O)cn2)cc1` [SKF94120], in [1], the “inhibition of isolated human PDE9A” value was “no inhibition”. In the case of `CCOC(=O)C1=C[C@]2(CC)CCCN3CCc4c(n1c1ccccc41)[C@@H]32` [vinpocetine], in [1], the “inhibition of isolated human PDE9A” value is on record as “no inhibition”. `Cc1c(F)cccc1Nc1nc(CC2CCCC2)[nH]c(=O)c1C#N` [Example 7, 2-(Cyclopentylmethyl)-4-[(3-fluoro-2-methylphenyl)amino]-6-oxo-1,6-dihydro-5-pyrimidinecarbonitrile]: the IC50 in [2] amounted to 54 nM. As to `Cc1ccncc1Nc1nc(CC2CCCCC2)[nH]c(=O)c1C#N` [Example 3, 2-(Cyclohexylmethyl)-4-[(4-methyl-3-pyridinyl)amino]-6-oxo-1,6-dihydro-5-pyrimidinecarbonitrile], the IC50 was greater than 4000 nM in assay [4]; greater than 4000 nM in [5]; greater than 4000 nM in assay [6]; greater than 4000 nM in [7]; 1400 nM in [8]; greater than 4000 nM in assay [9]. For the same molecule, the IC50 in [10] and in assay [11] was greater than 4000 nM throughout.

Regarding `OCCN(CCO)c1nc(N2CCCCC2)c2nc(N(CCO)CCO)nc(N3CCCCC3)c2n1` [dipyridamole], the “inhibition of isolated human PDE9A” value in [1] was “no inhibition”.
